This assay has as its system MDA-MB-468 breast. Put plainly: NCI-60 cell line screen, 48 h.

Where “and” joins values, the source holds several entries; their conditions need not be identical. Identical values can stand only once.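 Cells were grown in 96-well plates and exposed to each compound for 48 hours at five concentrations; endpoints were interpolated linearly between bracketing concentrations, or set to the highest concentration if not reached. At the GI50, growth is halved. TGI: total growth inhibition.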 A value given as a limit tells only on which side of the number the result lay.

Regarding `CC(C)=CCc1c(O)c(CC=C(C)C)c2c(c1O)C(=O)C1=C[C@@H]3C[C@H]4C(C)(C)O[C@@](C/C=C(\C)C(=O)O)(C3=O)[C@@]14O2`, the GI50 is 24.1 µM and the TGI was 48.6 µM.

Take `COc1ccc2cc1Oc1ccc(cc1)C[C@H]1c3c(cc4c(c3Oc3cc5c(cc3OC)CCN(C)[C@@H]5C2)OCO4)CCN1C`: the GI50 was 0.593 µM and the TGI came out at 2.31 µM.

Turning to `O=C1OCC2=C1C(c1ccccc1)c1cc3c(cc1N2)OCO3` (stereo not drawn), the GI50 was 0.027 µM and the TGI is 0.6 µM.

Regarding `COc1cc2c(cc1OCCCn1c(-c3ccccn3)nc3ccccc31)N=C[C@@H]1CCCN1C2=O`, the GI50 is 1.94 µM and the TGI was found to be 5.64 µM.

For the molecule `CCCN(CCS(C)(=O)=O)Cc1ccc(-c2ccc3ncnc(Nc4ccc(OCc5cccc(F)c5)c(Cl)c4)c3c2)o1`, the GI50 is 0.0752 µM and the TGI was determined as 0.877 µM.

Regarding `FC(F)(F)c1ccc(-c2cnc(-c3ncon3)nc2NC2CCCCCC2)cc1`, the GI50 is 48.5 µM and the TGI was greater than 100 µM.

Regarding `CN[C@@H](C)C(=O)N[C@H](C(=O)N1CCC[C@H]1C(=O)Nc1sc(-c2ncco2)nc1-c1ccccc1)C1CCCCC1`, the GI50 was 11.4 µM and the TGI is 35.7 µM.

Take `O=C1c2cccnc2C(=O)c2c1c(C(=O)NCCCN1CCCCC1)c1ccccn21`: the GI50 is 0.531 µM and the TGI amounted to 1.89 µM.

For `CN1CCN(Cc2ccc(NC(=O)c3cncc(C#Cc4cnc(N)nc4)c3)cc2C(F)(F)F)CC1`, the GI50 is 0.684 µM and the TGI was determined as 7.66 µM.

For `CCc1ccc2c(c1)N(CCO)C1=C(C(=O)OC1)C2c1cccc(Br)c1` (stereo not drawn), the GI50 is 0.164 µM and the TGI turned out to be 0.66 µM.

For the molecule `O=C1OCC2=C1C(c1ccc(Cl)c(Cl)c1)c1cc3c(cc1N2CCO)OCCO3` (stereo not drawn), the GI50 is 0.095 µM and the TGI worked out at 0.394 µM.

With `Nc1nc(OCc2ccccc2)c2[nH]cnc2n1`, the GI50 was 28.1 µM and 34.9 µM; the TGI was 207 µM.

Consider `CNCCCNCCCCNCCCN1C(=O)c2ccc3c4c(ccc(c24)C1=O)C(=O)N(CCCNCc1ccccc1OC)C3=O`, for which the GI50 was 1.89 µM and the TGI was determined as 11.7 µM.

Turning to `O=C(/C=C/c1cc2ccccc2[nH]c1=O)/C=C/c1cc2ccccc2[nH]c1=O`, the GI50 was 7.33 µM and the TGI was determined as 15.5 µM.

Consider `CC1=C2[C@@H](CC1)[C@]1(C)O[C@@](c3ccccc3)(C[C@H]1OC(=O)CO)[C@H]2OC(=O)/C=C/c1ccccc1`, for which the GI50 was 17.9 µM and the TGI is 46 µM.

As to `OCc1ccc(N2CCCC2c2ccccc2)cc1Cl` (stereo not drawn), the GI50 is 0.117 µM and the TGI was 0.448 µM.

For `O=C(/C=C\c1cccc([N+](=O)[O-])c1)/C=C/c1cccc([N+](=O)[O-])c1`, the GI50 was 3.43 µM and the TGI was determined as 55.5 µM.

Turning to `C[C@@H]1CN(Cc2ccc(F)cc2)[C@@H](C)CN1C(=O)c1cc2c(C(=O)C(=O)N(C)C)cn(C)c2cc1Cl`, the GI50 was 13.3 µM and the TGI worked out at 45 µM.

For the molecule `COc1ccc2c(c1)N(CCO)C1=C(C(=O)OC1)C2c1cccc(F)c1` (stereo not drawn), the GI50 was 0.202 µM.

For the molecule `CO[C@H]1CC(O[C@@H]2/C(C)=C/C[C@@H]3C[C@@H](C[C@]4(C=C[C@H](C)[C@@H](C5CCCCC5)O4)O3)OC(=O)[C@@H]3C=C(C)[C@@H](O)[C@H]4OC/C(=C\C=C\[C@@H]2C)[C@]43O)O[C@@H](C)C1O[C@H]1C[C@H](OC)[C@@H](O)[C@H](C)O1` (stereo partly drawn), the GI50 was 1.4 µM and the TGI amounted to 3.01 µM.

On to `COc1ccc(-c2nc(Nc3cc(C)[nH]n3)c3ccccc3n2)cc1`, for which the GI50 is 3.12 µM and the TGI is greater than 53.4 µM.

For the molecule `Cc1ccc(/C=N\NC(=O)c2[nH]c3ccc(F)cc3c2-c2ccccc2)cc1`, the GI50 was 0.024 µM and the TGI was 0.0674 µM.

On to `C1CCC([PH+](C2CCCCC2)C2CCCCC2[PH+](C2CCCCC2)C2CCCCC2)CC1.[Au].[CH-]1CCCCC1CC1CCCC[N-]1` (stereo not drawn), for which the GI50 was 0.161 µM and the TGI turned out to be 0.631 µM.

As for `O=C1c2c(c3c4ccccc4[nH]c3c3ccc4ccccc4c23)C(=O)N1CCN1CCNCC1`, the GI50 is 1.65 µM and the TGI is 3.3 µM.

In the case of `c1cnn2ncc(-c3ccnc(NCCCN4CCOCC4)n3)c2c1`, the GI50 was 3.45 µM and the TGI stood at 10 µM.

Take `CC(C)NCCCn1c(Sc2cc3c(cc2I)OCO3)nc2c(N)ncnc21`: the GI50 was 0.0827 µM and the TGI was determined as 3.62 µM.

On to `O=S(=O)(c1ccc(Cl)cc1)C(Cl)(Cl)Cl`, for which the GI50 is 1.44 µM and the TGI was determined as 5.5 µM.

Turning to `CCCCCCCCCCCCCCCCCC1=NCCN1CCOC1=C(Cl)C(=O)c2ccccc2C1=O`, the GI50 is 1.64 µM and the TGI stood at 3.27 µM.

For `OCC1OC(n2cnc3c(N/N=C\c4ccccn4)ncnc32)C(O)C1O` (stereo not drawn), the GI50 is 0.187 µM and the TGI amounted to 0.508 µM.

On to `CN=c1ccc2nc3ccc(N)cc3sc-2c1`, for which the GI50 is 2.9 µM and the TGI was determined as 17.1 µM.

As to `C/C(=C\c1ccc2ccccc2c1)[N+](=O)[O-]`, the GI50 is 1.56 µM and the TGI is 3.06 µM.

On to `CC(C)C[C@H](NC(=O)CNC(=O)c1cc(Cl)ccc1Cl)B1OC(=O)CC(CC(=O)O)(C(=O)O)O1` (stereo partly drawn), for which the GI50 is 0.017 µM and the TGI was found to be 0.0385 µM.

`CN(C)CCCn1c(=O)c2ccccc2c2ccccc21`: the GI50 is 6.18 µM and the TGI was determined as 20.1 µM.

As to `O=C(Nc1ccc(OCc2nnc(-c3ccc(Cl)cc3)o2)c(F)c1)Nc1ccc(Cl)c(C(F)(F)F)c1`, the GI50 was 1.8 µM and the TGI was found to be 7.37 µM.

`CCOc1ccccc1C(=O)N1CCN(c2cc(Cl)cc(Cl)c2)CC1`: the GI50 was 0.0292 µM and the TGI stood at 2.87 µM.

For `CN1C(=O)N(C)C2C1NN=c1s/c(=C\c3ccc(C(F)(F)F)cc3)c(=O)n12` (stereo not drawn), the GI50 is 0.51 µM and the TGI stood at 26.2 µM.

`O=S(=O)(Nc1cc(Sc2cccc3cccnc23)c(O)c2ccccc12)c1ccc(F)cc1`: the GI50 was 1.8 µM and the TGI was 4.08 µM.

Turning to `CCCCCCCCCCCCCCCCCC[n+]1ccc2c(C)c3c(c(C)c2c1)c1cc(O)ccc1n3CC`, the GI50 was 0.628 µM and the TGI stood at 4.11 µM.

In the case of `C=CC(=O)Nc1cccc(Oc2nc(Nc3ccc(N4CCN(C)CC4)cc3)nc3ccsc23)c1`, the GI50 was 0.267 µM and 0.57 µM; the TGI is 1.75 µM and 3.36 µM.

Consider `O=C1CCC(N2Cc3cc(CNC(=O)C(F)(F)c4ccc(Cl)cc4)ccc3C2=O)C(=O)N1` (stereo not drawn), for which the GI50 was 0.0481 µM.

Regarding `COc1ccc(-c2[nH]c3ccccc3c2-c2ccc(OC)cc2)cc1`, the GI50 was 2.43 µM and the TGI came out at 7.18 µM.

Consider `C#Cc1nc(/C=C/CCCCCCC(=O)NO)cs1`, for which the GI50 is 2.13 µM and the TGI was found to be 8.65 µM.

Take `CN1CCN(C(=O)c2cc(-c3ccc4ncnc(N5CCc6cc(F)c(Cl)cc65)c4c3)cnc2N)CC1`: the GI50 is 0.12 µM and the TGI came out at 0.365 µM.

On to `O=C1/C(=C/c2ccccc2[N+](=O)[O-])Cc2ccccc21`, for which the GI50 was 1.38 µM and the TGI was found to be 3.03 µM.

Consider `N#Cc1c(N2CCOCC2)nc(=S)[nH]c1-c1ccco1`, for which the GI50 was 3.51 µM and the TGI is greater than 100 µM.

Values taken from PubChem BioAssay (NCI).
